We go through 44 molecules from ChEMBL document CHEMBL1134701, “Atropisomeric quinazolin-4-one derivatives are potent noncompetitive alpha-amino-3-hydroxy-5-methyl-4-isoxazolepropionic acid (AMPA) receptor antagonists” (Bioorg Med Chem Lett, 2001).

The target of assay [1] is T1, Glutamate receptor ionotropic, AMPA (Rattus norvegicus, UniProt P19490+P19491+P19492+P19493). In words: Ability to block kainate-induced 45 [Ca2+] influx through functional assay of Ionotropic glutamate receptor AMPA activity in rat cerebellar granule cells.
Assay [2] has as its target T1, Glutamate receptor ionotropic, AMPA. Briefly: Evaluated in patch clamp electrophysiology study for its selectively evoked Ionotropic glutamate receptor AMPA mediated inward currents. On the technique in general: In patch-clamp work, channel activity is measured electrically.
For assay [3], the species on record is Rattus norvegicus. Briefly: Evaluated in patch clamp electrophysiology study for its selectively evoked AMPA and NMDA (glutamate receptors) mediated inward currents reduction. The format is functional.
Assay [4] relates to Rattus norvegicus. In words: Evaluated in vivo for the reduction in the population spike amplitude in the CA3 region of the hippocampus in anesthetized rat at a dose of 2 mg/kg (iv). The format is functional.
For assay [5], the system named is Mus musculus. Briefly: Blockade of ivc AMPA induced seizures in mice on subcutaneous administration (95%CI). The format is functional.
For assay [6], the system named is Mus musculus. Briefly: Blockade of pentylenetetrazole induced seizures in mice on subcutaneous administration (95% CI). Format: functional.
Assay [7] concerns Mus musculus. In words: Minimum effective dose in mice on subcutaneous administration. The format is functional.
The target in assay [8] is T1, Glutamate receptor ionotropic, AMPA. Briefly: Ability to block kainate-induced 45 [Ca2+] influx through functional assay of Ionotropic glutamate receptor AMPA activity in rat cerebellar granule cells.
In assay [9] the test system is Mus musculus. In words: Blockade of pentylenetetrazole induced seizures in mice on subcutaneous administration. Format: functional. Particulars: sc, read-out: ID50 (the source's name).

A word on the IC50: it is the concentration at which inhibition is half-maximal. A lower IC50 goes with inhibition by little substance. The molecule `COC(=O)c1cccc(/C=C/c2nc3ccc(F)cc3c(=O)n2-c2ccccc2Cl)n1` came in with a concentration for half-maximal inhibition (IC50) in assay [1] of 0.4 µM.

`O=c1c2ccccc2nc(/C=C/c2ccccn2)n1-c1ccccc1` gave an IC50 in [1] of over 1 µM.

Turning to `CNCc1cccc(/C=C/c2nc3ccc(F)cc3c(=O)n2-c2ccccc2Cl)n1`, the half-maximal inhibitory concentration (IC50) in assay [1] worked out at 0.103 µM.

In the case of `O=Cc1cccc(/C=C/c2nc3ccc(F)cc3c(=O)n2-c2ccccc2Cl)n1`, in [1], the IC50 turned out to be 0.097 µM.

In assay [1], `COc1cccc2c(=O)n(-c3ccccc3C)c(/C=C/c3ccccn3)nc12` displayed a 50% inhibitory concentration (IC50) of over 1 µM.

On to `Cc1ccc2nc(/C=C/c3ccccn3)n(-c3ccccc3C)c(=O)c2c1`, for which the IC50 in assay [1] worked out at 1.37 µM.

In [1], `Cc1ccccc1-n1c(/C=C/c2ccccn2)nc2c(Cl)cc(Cl)cc2c1=O` showed an IC50 of over 1 µM.

In assay [1], `O=c1c2cc(F)ccc2nc(/C=C/c2cccc(N3CCCC3)n2)n1-c1ccccc1Cl` had an IC50 of 0.031 µM.

The molecule `Cc1cccc(/C=C/c2nc3ccc(F)cc3c(=O)n2-c2ccccc2Cl)n1` displayed an IC50 in assay [1] of 0.036 µM.

`CCOCc1cccc(/C=C/c2nc3ccc(F)cc3c(=O)n2-c2ccccc2Cl)n1` yielded an IC50 in assay [1] of 0.082 µM.

With `Cc1cccc(C)c1-n1c(/C=C/c2ccccn2)nc2ccccc2c1=O`, the concentration for half-maximal inhibition (IC50) in assay [1] was over 1 µM.

Molecule `O=c1c2cc(F)ccc2nc(/C=C/c2ccccn2)n1-c1c(F)cccc1F` had a half-inhibitory concentration (IC50) in assay [1] of over 0.3 µM.

`NCc1cccc(/C=C/c2nc3ccc(F)cc3c(=O)n2-c2ccccc2Cl)n1`: in assay [1], the 50% inhibitory concentration (IC50) was determined as 0.34 µM.

Regarding `N#Cc1cccc(/C=C/c2nc3ccc(F)cc3c(=O)n2-c2ccccc2Cl)n1`, in assay [1], the IC50 was 0.244 µM. This IC50 and that of the molecule before are within 1.5-fold of each other.

Regarding `Cc1ccccc1-n1c(/C=C/c2ccccn2)nc2cc(Cl)ccc2c1=O`, the IC50 in assay [1] is over 3 µM.

The molecule `CC(C)NCc1cccc(/C=C/c2nc3ccc(F)cc3c(=O)n2-c2ccccc2Cl)n1` registered an IC50 in [1] of 0.059 µM.

Consider `CN(C)Cc1cccc(/C=C/c2nc3ccc(F)cc3c(=O)n2-c2ccccc2Cl)n1`, for which the half-maximal inhibitory concentration (IC50) in assay [1] was found to be 0.178 µM.

Take `Cc1ccccc1-n1c(/C=C/c2ccccn2)nc2ccc(F)cc2c1=O`: inhibition in assay [1] was half-maximal at 0.248 µM (IC50).

For `CC(=O)OCc1cccc(/C=C/c2nc3ccc(F)cc3c(=O)n2-c2ccccc2Cl)n1`, the IC50 in assay [1] was determined as 0.045 µM. Against the preceding molecule, the IC50 is about 5.5-fold lower.

Turning to `O=c1c2ccccc2nc(/C=C/c2ccccn2)n1-c1ccccc1F`, half-maximal inhibition in assay [1] (IC50) was put at 0.116 µM. This IC50 is about 2.6-fold higher than that of the molecule before.

Turning to `O=c1c2ccccc2nc(/C=C/c2ccccn2)n1-c1ccccc1Br`, in assay [1], 0.102 µM corresponded to half-maximal inhibition (IC50). This IC50 and that of the molecule before are within 1.5-fold of each other.

As for `COCc1cccc(/C=C/c2nc3ccc(F)cc3c(=O)n2-c2ccccc2Cl)n1`, in assay [1], the IC50 stood at 0.042 µM.

In [1], `O=c1c2cc(F)ccc2nc(/C=C/c2ccccn2)n1-c1ccccc1F` had a half-inhibitory concentration (IC50) of 0.18 µM.

With `COc1ccccc1-n1c(/C=C/c2ccccn2)nc2ccccc2c1=O`, in assay [1], it took 1.1 µM to reach half-maximal inhibition (IC50).

Regarding `Cc1ccccc1-n1c(/C=C/c2ccccn2)nc2c(Cl)cccc2c1=O`, the IC50 in [1] was over 1 µM.

`O=C(O)c1cccc(/C=C/c2nc3ccc(F)cc3c(=O)n2-c2ccccc2Cl)n1`: the concentration for half-maximal inhibition (IC50) in assay [1] is over 1 µM.

Consider `O=c1c2ccccc2nc(/C=C/c2ccccn2)n1-c1ccccc1Cl`, for which the IC50 in [1] was 0.433 µM.

Turning to `CCNCc1cccc(/C=C/c2nc3ccc(F)cc3c(=O)n2-c2ccccc2Cl)n1`, in [1], inhibition was half-maximal at 0.081 µM (IC50).

For `O=c1c2cc(F)ccc2nc(/C=C/c2ccccn2)n1-c1ccccc1Cl`, the midpoint of inhibition in assay [1], the IC50, lay at 0.096 µM.

Turning to `O=c1c2cc(F)ccc2nc(/C=C/c2cccc(CO)n2)n1-c1ccccc1Cl`, the concentration for half-maximal inhibition (IC50) in assay [1] stood at 0.058 µM.

Molecule `O=c1c2cc(F)ccc2nc(/C=C/c2cccc(N3CCCCC3)n2)n1-c1ccccc1Cl` came in with a 50% inhibitory concentration (IC50) in assay [1] of over 0.3 µM.

With `Cc1ccccc1-n1c(/C=C/c2ccccn2)nc2ccc(Cl)cc2c1=O`, the IC50 in [1] was determined as 0.124 µM.

With `O=c1c2ccccc2nc(/C=C/c2ccccn2)n1-c1ccccc1C(F)(F)F`, the 50% inhibitory concentration (IC50) in assay [1] was 0.146 µM. This IC50 and that of the molecule before are within 1.5-fold of each other.

As to `O=c1c2cc(F)ccc2nc(/C=C/c2cccc(CF)n2)n1-c1ccccc1Cl`, the IC50 in assay [1] is 0.056 µM.

Take `COc1cccc(/C=C/c2nc3ccc(F)cc3c(=O)n2-c2ccccc2Cl)n1`: the half-maximal inhibitory concentration (IC50) in [1] was determined as 0.031 µM.

In assay [1], `O=c1c2ccccc2nc(/C=C/c2ccccn2)n1-c1c(Cl)cccc1Cl` yielded an IC50 of over 1 µM.

With `CN(C)CCN(C)Cc1cccc(/C=C/c2nc3ccc(F)cc3c(=O)n2-c2ccccc2Cl)n1`, the IC50 in assay [1] was 0.15 µM.

For `Cc1ccccc1-n1c(/C=C/c2ccccn2)nc2ccc(Br)cc2c1=O`, half-maximal inhibition in [1] (IC50) was put at 0.162 µM.

On to `COc1cc2nc(/C=C/c3ccccn3)n(-c3ccccc3C)c(=O)c2cc1OC`, for which, in assay [1], the IC50 is over 1 µM.

`O=c1c2cc(F)ccc2nc(/C=C/c2ccccn2)n1-c1ccccc1Br` registered an IC50 in [1] of 0.065 µM.

As to `CCN(CC)Cc1cccc(/C=C/c2nc3ccc(F)cc3c(=O)n2-c2ccccc2Cl)n1` (stereo in doubt; 38), the 50% inhibitory concentration (IC50) was 0.025 µM in assay [2] and 0.074 µM in assay [1]. Moreover, the Reduction in the assay listed under Rattus norvegicus [3] is recorded as 36%. For the same molecule, the Blockade with Rattus norvegicus [4] worked out at 65.1%. Further, the ED50 in the assay with Mus musculus [5] (Mus musculus, sc, read-out: ID50 (the source's name)) is 3.6 mg/kg. In the assay with Mus musculus [6], this molecule returned an ID50 of 3.8 mg/kg. In the assay with Mus musculus [7] (Mus musculus, sc, read-out: MED), the minimal effective dose was 10 mg/kg.

In [8], `CCN(CC)Cc1cccc(/C=C/c2nc3ccc(F)cc3c(=O)n2-c2ccccc2Cl)n1` (stereo in doubt; (+)-38) had an IC50 of 0.036 µM. Also, the ID50 turned out to be 3.1 mg/kg with Mus musculus [5] and 1.5 mg/kg with Mus musculus [6]. For the same molecule, the MED in the assay on Mus musculus [7] was determined as 5.6 mg/kg.

`CCN(CC)Cc1cccc(/C=C/c2nc3ccc(F)cc3c(=O)n2-c2ccccc2Cl)n1` (stereo in doubt; (-)-38) had an IC50 in [8] of 0.0001 µM. Also, in the assay on Mus musculus [9], the ED50 worked out at 10 mg/kg.

The molecule `Cc1ccccc1-n1c(/C=C/c2ccccn2)nc2ccccc2c1=O` [PIRIQUALONE] had a 50% inhibitory concentration (IC50) in [1] of 0.46 µM.
